Reference: article PMC5267425, “Identification of small molecule modulators of HIV-1 Tat and Rev protein accumulation” (Retrovirology, 2017)

Columns and labels:
Type in all cases: cell-based
[1] = test system: HIV-1 Tat (p14, p16) and Gag; test: Rescue of Tat/Gag expression by proteasome inhibitor MG132; conditions: MG132 10 μM for 8 h in the presence of compound
Protocol: To assess effect of compounds on HIV-1 Tat stability, the decay of HIV-1 Tat levels was compared between DMSO-treated and compound-treated protein lysates in the presence of cycloheximide. In the first set of experiments, HIV-1 gene expression was induced with doxycylin (dox) for 24 h then 10 μg/mL cycloheximide was added to block new protein synthesis in combination with either DMSO or the compounds. Cells were harvested every 2 h and Tat protein levels measured by western blot. Quantification of the relative intensity of the detected bands was performed using ImageLab software (BioRad) and normalized to corresponding bands of the loading control (GAPDH) from at least three independent experiments. To determine whether the compounds’ effect on HIV-1 gene expression could be reversed by inhibition of the proteasome, compound treatment assay was performed as previously described with the addition of 10 μM MG132 (Sigma-Aldrich) to compound-treated cells 8 h prior to harvesting. Equal amounts of protein were run on 13 or 14% gels by SDS-PAGE, blotted and probed with antibodies for Tat and GAPDH. Quantification of the relative intensity of the detected bands was performed using ImageLab software (BioRad) and normalized to corresponding bands of the loading control (GAPDH) from at least three independent experiments.

[2] = Viable cell count by FSC/SSC gate, CEM-GXR; conditions: human, CEM-GXR cells infected with a Clade B HIV-1 strain
Protocol: To assess the activity of compounds against HIV-1 strains having resistance to various ART drugs, assays were performed in the context of CEM-GXR cells. These cells express CD4, CXCR4, and coreceptor, CCR5 as well as an exogenous Tat-driven LTR-GFP expression cassette. Cultures were infected with different HIV-1 strains of interest, differing on their subtypes (A and B), and resistance to three major drug targets (reverse transcriptase, protease, and integrase). The culture contains serial dilutions of the molecule in the final concentrations from 0.156 to 5 μM for 833; 725 nM to 46.87 μM for 791; 1.95 to 62.5 μM for 892. Antiviral activity was evaluated in the assay by measuring inhibition of HIV-1 spread in a coculture of CEM-GXR cells containing 1% of HIV-1 infected (GFP positive) cells using flow cytometric analysis (GuavaSoft 2.2 software, Guava HT8, Millipore). To estimate the viable cell counts, the gate in a flow cytometer (Guava HT8) was set to cover 95% of the freshly passaged uninfected CEM-GXR cell or using ViaCount™. The same parameter was employed to gate viable cells in the inhibition assay and the number of gated cells was obtained by GuavaSoft 2.2 software. For assays using ViaCount™, sample acquisition and data analysis were performed with the selection of EasyFit analysis feature using the ViaCount™ software module.

[3] = test system: HIV-1 Gag expression in SupT1 NLESG cells; test: Gag (p24) ELISA in SupT1 24STNLESG cells after PMA induction; conditions: for inhibition of HIV-1 gene expression in CD4+ SupT1 cells: Figure S1; for IC50: Human immunodeficiency virus 1, SUP-T1
Protocol: Additional file 1: Figure S1. 791 and 833 Suppress HIV-1 Gene Expression in SupT1 24NESLG Cell Line. a Schematic of HIV-1 provirus used to generated the stably transduced SupT1 cell line. b Effect of 791 and 833 on Gag expression in SupT1 NLESG cells. Cells were treated with indicated concentrations of 791/833 then HIV-1 expression induced by PMA addition. Media harvested after 24 h was subsequently assayed using Gag (p24) ELISA. Cell viability was measured by an XTT assay. 892 was not active in this cell line at the concentrations tested Additional file 2: Figure S7. Effect of compounds on CEM-GXR cell viability. Evaluation of 791, 833, and 892 on CEM-GXR cell viability in the Guava ViaCount assay. Cells were analyzed after 24 h incubation with the compounds at the indicated concentrations ranging between 0–47 μM (791), 0–5 μM (833), or 0–62.5 μM (892). Results are expressed as the percentage (%) of viable cells relative to DMSO treatment ±SEM of two independent experiments performed in triplicate. Cytotoxic concentration resulting in the death of 50% of the host cells (CC50) relative to DMSO measured by ViaCount assay (Millipore) are listed in Table 1 Additional file 3: Table S1. Mutations in HIV-1 proteins associated with resistance to ARVs Additional file 4: Figure S2.Pattern of HIV-1 RNA splicing. Shown at the top is the organization of the HIV-1 proviral genome indicating the position of the multiple 5′ splice donor sites (SD1–SD4) and 3′ splice acceptor sites (SA1–SA7) used in splicing of pre-mRNA. In the middle is an illustration of the alternatively spliced RNAs generated by processing of the HIV-1 genomic RNA. Indicated are the common (open boxes) and alternative exons (closed boxes) used in the generation of the SS (4 kb) and MS (1.8 kb) viral RNAs. At the bottom is a list of the nomenclature used to refer to the exon composition of the individual RNAs generated for both the SS and MS classes of HIV-1 RNAs Additional file 5: Figure S3. Characterization of HeLa rtTA HIVGagGFP cell line. a Representative images of HeLa rtTA HIVGagGFP C7 cells treated with DMSO in the absence (uninduced) or presence (induced) of doxycyclin (N ≥ 3). Cells were viewed at 630X (oil immersion) magnification. Images are cropped to show a representative field of view. b The dose range of the compounds which inhibit HIV-1 GagGFP expression in HeLa rtTA HIVGagGFP C7 cells was measured by mean fluorescence intensity and expressed relative to fluorescence intensity in DMSO-treated samples (N ≥ 3, *p ≤ 0.05, **p ≤ 0.01, and ***p ≤ 0.001). The effect of the compounds on cellular metabolism at the indicated concentrations was measured using an XTT assay as a readout of viable cells and expressed relative to absorbance reads of DMSO-treated samples (N ≥ 3, *p ≤ 0.05, **p ≤ 0.01, and ***p ≤ 0.001). Error bars indicate standard error of the mean (SEM) Additional file 6: Figure S4. […] MG132 (10 μM) was added for 8 h as an additional control to determine whether inhibition of the proteasome prevents protein degradation. All uninduced (unind.) and 0 h samples were treated with DMSO. GAPDH serves as loading control. b Summary of effect of compounds on HIV-1 Tat degradation. Band volume intensities of both p14 and p16 Tat isoforms were calculated for each treatment relative to that of the DMSO control treatment and were then normalized to corresponding GAPDH bands (N ≥ 3, except for 833, N = 1–2). […]

Cc1cc(NCc2cccnc2)n2ncc(-c3ccc(Cl)cc3)c2n1 [Compound 791, 3-(4-chlorophenyl)-5-methyl-N-(3-pyridinylmethyl)pyrazolo[1,5-a]pyrimidin-7-amine]
accumulation of both Tat isoforms on addition of MG132 [1]: significant accumulation | CC50 [2]: > 12 µM | inhibition of HIV-1 gene expression in CD4+ SupT1 cells [3]: maintained their inhibition | IC50 [3]: 26 µM

O=C(NC(=S)NNC(=O)c1ccccc1O)c1ccc(-c2ccccc2)cc1 [Compound 833, N-([2-(2-hydroxybenzoyl)hydrazino]carbonothioyl}-4-biphenylcarboxamide]
accumulation of both Tat isoforms on addition of MG132 [1]: significant accumulation | CC50 [2]: > 5 µM | inhibition of HIV-1 gene expression in CD4+ SupT1 cells [3]: maintained their inhibition | IC50 [3]: 3.5 µM

COc1ccc(C=NNC(=O)c2ccccc2O)cc1O [Compound 892, 2-hydroxy-N′-(3-hydroxy-4-methoxybenzylidene)benzohydrazide]
accumulation of both Tat isoforms on addition of MG132 [1]: significant accumulation | CC50 [2]: 31 µM | inhibition of HIV-1 gene expression in CD4+ SupT1 cells [3]: not active
